# Experimental data from ChEMBL document CHEMBL1150330, “Muscarinic antagonists with multiple stereocenters: Synthesis, affinity profile and functional activity of isomeric 1-methyl-2-(2,2-alkylaryl-1,3-oxathiolan-5-yl)pyrrolidine sulfoxide derivatives” (Bioorg Med Chem, 2008).
# Experiments:
# [1] = biological target: T1, Muscarinic acetylcholine receptor M2 (Homo sapiens, UniProt P08172); test: Displacement of [3H]NMS from human muscarinic M2 receptor expressed in CHO cells; assay type: cell-based
# T1 sequence (P08172 whole entry): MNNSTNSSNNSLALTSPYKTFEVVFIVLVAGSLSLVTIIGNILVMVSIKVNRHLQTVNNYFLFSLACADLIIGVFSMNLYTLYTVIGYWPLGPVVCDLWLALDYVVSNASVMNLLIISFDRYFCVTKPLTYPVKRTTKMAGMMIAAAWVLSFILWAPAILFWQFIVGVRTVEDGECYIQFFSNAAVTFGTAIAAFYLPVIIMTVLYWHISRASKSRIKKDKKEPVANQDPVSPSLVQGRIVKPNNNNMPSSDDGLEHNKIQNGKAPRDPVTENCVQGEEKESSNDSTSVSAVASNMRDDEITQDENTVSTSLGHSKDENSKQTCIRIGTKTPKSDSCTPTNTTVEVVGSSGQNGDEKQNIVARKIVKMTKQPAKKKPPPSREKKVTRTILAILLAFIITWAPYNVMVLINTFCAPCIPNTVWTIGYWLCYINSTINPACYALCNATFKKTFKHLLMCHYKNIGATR
# [2] = biological target: T2, Muscarinic acetylcholine receptor M1 (Homo sapiens, UniProt P11229); test: Displacement of [3H]NMS from human muscarinic M1 receptor expressed in CHO cells; assay type: cell-based
# T2 sequence (P11229 whole entry): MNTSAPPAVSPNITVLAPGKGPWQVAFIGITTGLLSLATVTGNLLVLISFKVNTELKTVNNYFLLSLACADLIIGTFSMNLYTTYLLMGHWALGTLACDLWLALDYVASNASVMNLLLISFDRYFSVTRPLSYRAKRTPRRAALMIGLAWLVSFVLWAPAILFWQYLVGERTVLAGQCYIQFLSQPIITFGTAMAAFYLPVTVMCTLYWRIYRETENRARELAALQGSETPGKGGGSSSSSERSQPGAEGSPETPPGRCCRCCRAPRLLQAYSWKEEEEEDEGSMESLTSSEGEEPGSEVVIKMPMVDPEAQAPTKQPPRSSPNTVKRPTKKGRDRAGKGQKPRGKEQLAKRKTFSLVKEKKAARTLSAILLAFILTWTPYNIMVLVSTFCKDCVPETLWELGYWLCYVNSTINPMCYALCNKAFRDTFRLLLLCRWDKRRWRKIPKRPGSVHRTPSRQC
# [3] = biological target: Muscarinic acetylcholine receptor M3 (Homo sapiens, UniProt P20309); test: Displacement of [3H]NMS from human muscarinic M3 receptor expressed in CHO cells; assay type: cell-based
# Chain of Muscarinic acetylcholine receptor M3 (P20309 whole entry): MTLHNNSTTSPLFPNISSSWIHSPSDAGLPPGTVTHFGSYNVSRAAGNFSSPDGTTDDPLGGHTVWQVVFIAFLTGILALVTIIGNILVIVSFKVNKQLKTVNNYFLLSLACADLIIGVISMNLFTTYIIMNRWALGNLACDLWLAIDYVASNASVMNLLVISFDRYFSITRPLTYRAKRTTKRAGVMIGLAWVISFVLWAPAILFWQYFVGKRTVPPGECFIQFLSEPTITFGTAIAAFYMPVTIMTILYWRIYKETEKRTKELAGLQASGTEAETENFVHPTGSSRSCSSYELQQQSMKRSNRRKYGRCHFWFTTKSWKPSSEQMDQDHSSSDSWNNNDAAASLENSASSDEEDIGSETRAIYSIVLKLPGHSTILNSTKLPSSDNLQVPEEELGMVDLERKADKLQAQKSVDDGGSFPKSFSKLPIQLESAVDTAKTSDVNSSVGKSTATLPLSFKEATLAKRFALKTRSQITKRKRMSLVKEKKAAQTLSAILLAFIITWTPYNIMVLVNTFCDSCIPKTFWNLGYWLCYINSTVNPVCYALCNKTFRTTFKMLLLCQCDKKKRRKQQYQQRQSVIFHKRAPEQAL
# [4] = Antagonist activity against muscarinic M4 receptor in guinea pig lung strip assessed as effect on electrically-stimulated contraction; assay type: functional, Cavia porcellus
# [5] = Antagonist activity against muscarinic M3 receptor in guinea pig ileum assessed as effect on ileum tension; assay type: functional, Cavia porcellus
# [6] = biological target: T3, Muscarinic acetylcholine receptor M4 (Homo sapiens, UniProt P08173); test: Displacement of [3H]NMS from human muscarinic M4 receptor expressed in CHO cells; assay type: cell-based
# T3 sequence (P08173 whole entry): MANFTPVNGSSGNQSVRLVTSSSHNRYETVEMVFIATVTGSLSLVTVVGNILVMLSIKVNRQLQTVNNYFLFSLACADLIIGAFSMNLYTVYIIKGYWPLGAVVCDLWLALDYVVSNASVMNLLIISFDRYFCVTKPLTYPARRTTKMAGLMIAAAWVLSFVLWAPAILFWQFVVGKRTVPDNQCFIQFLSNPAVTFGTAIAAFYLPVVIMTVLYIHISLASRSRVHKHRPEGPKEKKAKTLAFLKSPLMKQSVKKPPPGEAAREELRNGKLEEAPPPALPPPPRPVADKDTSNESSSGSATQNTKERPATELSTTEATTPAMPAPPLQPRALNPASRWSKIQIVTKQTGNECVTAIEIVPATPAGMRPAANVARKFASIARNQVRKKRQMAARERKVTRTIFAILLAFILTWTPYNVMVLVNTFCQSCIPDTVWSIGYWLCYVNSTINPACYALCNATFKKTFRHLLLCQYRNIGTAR
# [7] = biological target: T4, Muscarinic acetylcholine receptor M5 (Homo sapiens, UniProt P08912); test: Displacement of [3H]NMS from human muscarinic M5 receptor expressed in CHO cells; assay type: cell-based
# T4 sequence (P08912 whole entry): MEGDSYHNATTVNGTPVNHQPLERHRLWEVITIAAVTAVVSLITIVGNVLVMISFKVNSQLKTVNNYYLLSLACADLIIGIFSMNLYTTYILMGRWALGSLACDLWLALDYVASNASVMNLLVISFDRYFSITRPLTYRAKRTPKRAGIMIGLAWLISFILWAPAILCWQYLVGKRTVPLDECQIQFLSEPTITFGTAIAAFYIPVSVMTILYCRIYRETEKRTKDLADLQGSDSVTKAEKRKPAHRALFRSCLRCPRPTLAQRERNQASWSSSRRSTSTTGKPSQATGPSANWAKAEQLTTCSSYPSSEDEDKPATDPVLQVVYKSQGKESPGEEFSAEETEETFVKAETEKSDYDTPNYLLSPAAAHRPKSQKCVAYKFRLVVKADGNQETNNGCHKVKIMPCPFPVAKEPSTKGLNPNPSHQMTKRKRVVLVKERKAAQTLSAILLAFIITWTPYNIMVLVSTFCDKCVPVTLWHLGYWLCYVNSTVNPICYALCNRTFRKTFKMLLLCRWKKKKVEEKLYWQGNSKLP
# [8] = Antagonist activity against muscarinic M2 receptor in guinea pig atria assessed as effect on electrically-stimulated atria; assay type: functional, Cavia porcellus
SMILES,Ki [1] [nM],Ki [2] [nM],Ki [3] [nM],Ki [6] [nM],Ki [7] [nM],pKb [4],pKb [5],pKb [8]
C[N+]1(C)CCC[C@@H]1[C@@H]1C[S+]([O-])[C@](c2ccccc2)(C2CCCCC2)O1.[I-] (stereo in doubt; (-)-12),85.1,56.2,288,316,195,7.45,7.11,7.91
C[N+]1(C)CCC[C@@H]1[C@@H]1C[S+]([O-])[C@](c2ccccc2)(C2CCCCC2)O1.[I-] (stereo in doubt; (-)-13),95.5,117,324,468,302,6.06,7.22,7.51
C[N+]1(C)CCC[C@H]1[C@H]1C[S+]([O-])[C@](c2ccccc2)(C2CCCCC2)O1.[I-] (stereo in doubt; (-)-14),550,155,324,603,331,5.24,6.68,6.03

# Compounds with a lower Ki [1], results first:
Ki [1] [nM],Ki [2] [nM],Ki [3] [nM],Ki [6] [nM],Ki [7] [nM],SMILES,pKb [4],pKb [5],pKb [8]
41.7,15.8,51.3,105,30.2,C[N+]1(C)CCC[C@H]1[C@H]1C[S+]([O-])C(c2ccccc2)(c2ccccc2)O1.[I-] (stereo in doubt; (-)-11),<5,7.89,6.93
57.5,19.5,77.6,112,41.7,C[N+]1(C)CCC[C@H]1[C@H]1C[S+]([O-])[C@](c2ccccc2)(C2CCCCC2)O1.[I-] (stereo in doubt; (-)-15),5.64,7.9,6.92
